Key:
[1] = Stability of S-303 after reconstitution, HPLC percent total peak area; format: physicochemical
Description: Increasing the throughput of RBC processing over the current process may benefit from the preparation of multi-use “bulk” containers of S-303 and GSH stock solutions for transfer (e.g., sequential transfer) into multiple processing sets to treat multiple RBC units. However, the instability of S-303 after reconstitution in the current INTERCEPT Blood System technology would generally not be suitable for such a multi-dose container approach. Toward an objective of multi-dose “bulk” dosing, which would require much longer hold times post-reconstitution, studies were performed to evaluate the stability of S-303 under different conditions, such as when reconstituted at higher concentrations. As control, S-303 was reconstituted at a concentration of 6.1 mM. Additional study arms reconstituted S-303 at 9.4 mM, 14.4 mM and 28.8 mM (Table 10). S-303 levels were measured over 120 min after reconstitution by standard HPLC and calculated as total peak area (e.g., area under the peak, area under the curve) to determine percent stability (percent total area).
Subsequent studies were performed in a similar manner as the above to further evaluate S-303 stability at higher concentrations than tested initially, including reconstitution at 40 mM, 50 mM and 75 mM concentrations.

[2] = test system: RBCs; test: Hemolysis after addition to RBCs of S-303/GSH reconstituted in WFI or saline; format: cell-based
Description: A study was performed to evaluate water (WFI, water for injection) as an alternative to saline for reconstitution of S-303 and/or GSH, for potential advantages such as manufacturing, cost of goods and/or regulatory requirements. Initially, the combinations of S-303 and GSH both reconstituted in WFI, or alternatively GSH reconstituted in WFI and S-303 reconstituted in saline were compared to the standard method of reconstituting both GSH and S-303 in saline. Following addition to RBCs, the level of hemolysis was evaluated due to water potentially being a hypotonic environment for the RBC.
Based on the extended stability data above for reconstituting S-303 at higher concentrations, an opportunity is provided for using bulk S-303 containers and a dosing device as described above for reconstituting S-303 at higher concentrations followed by a dilution step with diluent as part of the transfer of S-303 to the RBC in the mixing container. With such a dilution step, water may be substituted as an alternative to saline in the reconstitution step for the bulk S-303, followed by dilution in saline prior to each transfer step into individual RBC processing sets. To evaluate the feasibility of water reconstitution followed by saline dilution, an additional study was performed. […]

[3] = Stability of S-303 after reconstitution, HPLC percent total peak area; format: physicochemical; remark: listed apart in the source

For `O=C(CCNc1c2ccccc2nc2ccccc12)OCCN(CCCl)CCCl` [S-303, β-alanine, N-(acridin-9-yl), 2-[bis(2-chloroethyl)amino]ethyl ester], the “stability, glass vials vs hemocompatible blood bags of different sheeting materials” value ([1]; 75 mM) was “no differences in stability observed”, the Mean % stability ([1]; reconstituted at 6.1 mM (control), 1 min) was 98% and the Mean % stability ([1]; reconstituted at 6.1 mM (control), 10 min) was 97%. It also gave a Mean % stability ([1]; reconstituted at 6.1 mM (control), 20 min) of 95%, a Mean % stability ([1]; reconstituted at 6.1 mM (control), 30 min) of 94% and a Mean % stability ([1]; reconstituted at 6.1 mM (control), 45 min) of 92%. The Mean % stability ([1]; reconstituted at 6.1 mM (control), 60 min) was 90%, the Mean % stability ([1]; reconstituted at 6.1 mM (control), 90 min) was 87% and the Mean % stability ([1]; reconstituted at 6.1 mM (control), 120 min) was 85%. It also gave a Mean % stability ([1]; reconstituted at 9.4 mM, 1 min) of 98%, a Mean % stability ([1]; reconstituted at 9.4 mM, 10 min) of 97% and a Mean % stability ([1]; reconstituted at 9.4 mM, 20 min) of 96%. It also gave a Mean % stability ([1]; reconstituted at 9.4 mM, 30 min) of 95%, a Mean % stability ([1]; reconstituted at 9.4 mM, 45 min) of 93% and a Mean % stability ([1]; reconstituted at 9.4 mM, 60 min) of 92%. The Mean % stability ([1]; reconstituted at 9.4 mM, 90 min) was 90%, the Mean % stability ([1]; reconstituted at 9.4 mM, 120 min) was 87% and the Mean % stability ([1]; reconstituted at 14.4 mM, 1 min) was 99%. The Mean % stability ([1]; reconstituted at 14.4 mM, 10 min) was 97%, the Mean % stability ([1]; reconstituted at 14.4 mM, 20 min) was 96% and the Mean % stability ([1]; reconstituted at 14.4 mM, 30 min) was 96%. It also gave a Mean % stability ([1]; reconstituted at 14.4 mM, 45 min) of 95%, a Mean % stability ([1]; reconstituted at 14.4 mM, 60 min) of 94% and a Mean % stability ([1]; reconstituted at 14.4 mM, 90 min) of 92%. It also gave a Mean % stability ([1]; reconstituted at 14.4 mM, 120 min) of 90%, a Mean % stability ([1]; reconstituted at 28.8 mM, 1 min) of 99% and a Mean % stability ([1]; reconstituted at 28.8 mM, 10 min) of 98%. It also gave a Mean % stability ([1]; reconstituted at 28.8 mM, 20 min) of 97%, a Mean % stability ([1]; reconstituted at 28.8 mM, 30 min) of 97% and a Mean % stability ([1]; reconstituted at 28.8 mM, 45 min) of 96%. For the same compound, the Mean % stability ([1]; reconstituted at 28.8 mM, 60 min) was 95%, the Mean % stability ([1]; reconstituted at 28.8 mM, 90 min) was 94% and the Mean % stability ([1]; reconstituted at 28.8 mM, 120 min) was 92%. For the same compound, the percent stable ([1]; reconstituted at 28.8 mM, up to 60 minutes) was > 95%, the stability ([1]; reconstituted at 75 mM, through 150 min) was “at least 95%” and the hemolysis ([2]; S-303 reconstituted at 28.8 mM or 50 mM in WFI, diluted to 6 mM in saline prior to addition to RBCs, GSH in WFI (FIG. 7)) was “eliminated the issue of hydrolysis previously observed”. The level of hemolysis ([2]; S-303 reconstituted in WFI, after addition to RBCs, compared with saline reconstitution (FIG. 6)) was “notable levels of hemolysis”, the “stability time, extrapolation of the data in a best fit curve” value ([3]; 100 mM concentration) was “approximately 170 min” and the “stability time, extrapolation of the data in a best fit curve” value ([3]; 150 mM concentration) was ~240 min.

Reference: patent US20260034277A1, “SYSTEMS AND METHODS FOR PATHOGEN INACTIVATION OF BLOOD PRODUCTS” (Cerus Corporation, priority 2024, published 2026)
